Laboratory results: US8703769B2, “Use of EGFR inhibitors to prevent or treat obesity” (The University of North Carolina at Chapel Hill, priority 2005, dated 2014)

Assays:
Type in all cases: in vivo
EGFR [1] = target: T1, EGFR (Mus musculus, UniProt Q01279); experiment: High fat diet with or without AG1478 for about 1 month, C57BL/6 male mice (Example 2); conditions: for accumulation of adipose tissue (percent body fat by DEXA): C57BL/6 male mice, HFD + AG1478 (144 ppm in diet) vs HFD alone, FIGS. 9-12
T1 construct: from tissue; host or cells: whole animal: wild-type C57BL/6J male mice
Method: (§1) Diets: A base Western Diet (D12079B, Research Diets, Inc., New Brunswick, N.J., U.S.A.) having 41% fat (kcal) was used in all studies, and is designated HFD. The small molecule inhibitor AG1478 (LC Laboratories, Woburn, Mass., U.S.A.) was added to this base diet to a final concentration of […]. This diet is designated HFD+INH.
(§2) In experiments using wild-type C57BL6/J (B6) mice, male mice were housed individually and were started on the diet experiments at 8 weeks of age. In Example 2, mice were maintained on the HFD or HFD+INH for 1 month. In Example 3, mice were maintained on the HFD (n=8) or HFD+INH (n=8) for 6 months. In Example 4, all mice were placed on the HFD for 3 months; after this time, Group 1 (n=4) was placed on HFD+INH, while Group 2 (n=4) was maintained on HFD.
(§3) Clinical chemistry: Non-fasted blood glucose levels were measured at baseline and monthly using the FREESTYLE® blood glucose monitor (Abbott Laboratories, Abbott Park, Ill., U.S.A.) which was calibrated per manufacturer's instruction prior to use. All measurements were taken from 4-5 pm. At sacrifice, blood was collected by retro-orbital bleed and serum was isolated. Serum concentrations of triglycerides and total cholesterol were measured using an automatic blood chemical analyzer (Johnson & Johnson, New Brunswick, N.J., U.S.A.) by the University of North Carolina at Chapel Hill Animal Clinical Chemistry and Gene Expression Laboratories Core.
(§4) Body composition analysis: On the day of analysis, mice were weighed, anaesthetized with 2-3% isofluorane, and body composition was determined with a PIXIMUS II™ Mouse Densitometer (GE Medical Systems, distributed by Faxitron X-Ray Corporation, Wheeling, Ill., U.S.A.) using software versions 1.46 and 2.10. These measurements were taken at baseline and monthly during the diet studies. The Dual-energy X-ray absorptiometry (DEXA) method of determining body composition and body fat has been validated in lean and obese mice (Brommage (2003) J Physiol Endocrinol Metab 285: E454-459).
(§5) Statistical analysis: Results are expressed as mean+/−STD. A two-sided unpaired student's t-test was used for preliminary statistical analysis.
FIGS. 9-12 depict the results of C57BL/6 male mice exposed either to a high fat diet (HFD; […]) or the HFD base diet plus the EGFR small molecule inhibitor AG1478 (144 ppm) for about 1 month. The mice were approximately 6 weeks old when started on the dietary study. Male littermates were housed together, so the data are shown as the mean per cage. There is an n of […] for the mice on the HFD+inhibitor (INH), with two test groups of 6 (HFD+INH1 and HFD+INH2) and an n of 4 for the HFD cage.

EGFR [2] = target: T1, EGFR; experiment: High fat diet with or without AG1478 for 6 months, B6 male mice (Example 3)
Method: as §1, §2, §3, §4, §5
In order to determine if the short-term effects on weight gain due to the inhibitor action were applicable over a longer time period, the experiments of Example 2 were extended over six months.
Baseline measurements (body weights, blood glucose, and percent body fat) were taken of 2-month-old male C57 BL/6J (B6) mice which were then housed individually and randomly assigned to receive either HFD or HFD+Inhibitor A (AG 1478). Measurements were again assessed at 1, 2 and 6 months of treatment. All mice were sacrificed at month 6. At sacrifice, blood was collected for clinical chemistry. Heart, liver and fat depots were also dissected and weighed. A two-sided unpaired student's t-test was used for preliminary statistical analysis.

EGFR [3] = target: T1, EGFR; experiment: Already obese B6 male mice on HFD switched to HFD+INH (Example 4); conditions: n=4 per group
Method: as §1, §2, §3, §4, §5
In order to assess whether EGFR inhibitors can effect weight loss or stasis in an already obese subject, obese mice were administered an EGFR inhibitor and body mass and chemistry measurements made over time while maintaining a HFD. Specifically, baseline measurements were taken of 2 month-old male B6 mice, which were then housed individually and placed on a HFD for 2 months. Body weights, blood glucose, and percent body fat were assessed at this time point, and mice were randomly assigned to two groups. Group 1 (Grp1) was continuously fed the HFD, while Group 2 (Grp2) was switched to the HFD+INH after the initial two months. Measurements were again assessed at 1 and 3 months after the diet switch (experimental month 3 and 5). All mice were sacrificed at month 5. At sacrifice, blood was collected for clinical chemistry and heart, liver and fat depots were dissected and weighed. A two-sided unpaired student's t-test was used for preliminary statistical analysis.

[4] = HFD+inhibitor A vs HFD alone, six months, n=8 per group, FIG. 14
[5] = plasma after 6 months, 7-8 mice per group, HFD+Inhibitor A vs HFD, FIG. 17
[6] = between treatment groups at sacrifice (month 5), FIG. 20B
[7] = between treatment groups, FIG. 21

T1 sequence (Q01279 25-1210): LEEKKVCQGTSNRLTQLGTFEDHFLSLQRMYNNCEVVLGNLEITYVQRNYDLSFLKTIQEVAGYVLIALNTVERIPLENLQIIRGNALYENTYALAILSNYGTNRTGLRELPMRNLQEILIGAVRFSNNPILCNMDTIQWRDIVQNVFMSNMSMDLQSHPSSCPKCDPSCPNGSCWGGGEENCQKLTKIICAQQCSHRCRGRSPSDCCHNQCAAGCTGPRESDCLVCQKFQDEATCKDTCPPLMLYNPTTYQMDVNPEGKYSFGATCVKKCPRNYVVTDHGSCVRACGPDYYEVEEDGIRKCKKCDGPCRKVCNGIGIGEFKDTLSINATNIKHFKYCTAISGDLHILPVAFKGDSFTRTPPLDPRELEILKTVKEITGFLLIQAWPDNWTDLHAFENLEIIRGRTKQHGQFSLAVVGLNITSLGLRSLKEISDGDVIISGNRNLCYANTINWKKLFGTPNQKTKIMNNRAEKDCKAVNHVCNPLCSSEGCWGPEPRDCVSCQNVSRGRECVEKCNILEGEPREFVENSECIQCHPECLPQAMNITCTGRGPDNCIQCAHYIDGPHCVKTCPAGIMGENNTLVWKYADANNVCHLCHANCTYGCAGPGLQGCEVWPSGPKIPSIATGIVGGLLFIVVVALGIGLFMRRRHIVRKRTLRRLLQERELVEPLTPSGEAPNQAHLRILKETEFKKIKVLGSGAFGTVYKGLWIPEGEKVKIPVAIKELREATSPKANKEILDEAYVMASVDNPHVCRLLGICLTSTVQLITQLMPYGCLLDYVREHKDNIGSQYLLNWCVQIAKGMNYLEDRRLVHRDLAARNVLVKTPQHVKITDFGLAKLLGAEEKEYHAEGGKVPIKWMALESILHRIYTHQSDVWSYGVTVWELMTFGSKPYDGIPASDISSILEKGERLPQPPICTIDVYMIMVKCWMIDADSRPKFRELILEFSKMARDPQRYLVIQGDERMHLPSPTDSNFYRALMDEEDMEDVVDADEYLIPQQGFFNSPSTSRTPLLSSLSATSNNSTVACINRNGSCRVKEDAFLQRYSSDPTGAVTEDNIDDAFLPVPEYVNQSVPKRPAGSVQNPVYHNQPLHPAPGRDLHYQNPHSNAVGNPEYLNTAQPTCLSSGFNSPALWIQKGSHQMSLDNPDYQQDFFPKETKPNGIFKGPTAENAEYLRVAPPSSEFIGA

COc1cc2ncnc(Nc3cccc(Cl)c3)c2cc1OC [AG1478, 4-(3-Chloroanillino)-6,7-dimethoxyquinazoline]
accumulation of adipose tissue (percent body fat by DEXA) (EGFR [1]; about 1 month): reduction in adipose tissue accumulation
accumulation of adipose tissue (percent body fat by DEXA) (EGFR [1]; about 1 month, listed as AG 1478): successfully inhibited the accumulation of adipose tissue
body weight gain (EGFR [1]; HFD+INH vs HFD control mice, one month, FIG. 11): gained less body weight
food consumption per mouse per day (EGFR [1]; HFD+INH vs HFD, about 1 month, estimated from total food remaining per day, FIG. 10): no significant difference
body weight (BW) (EGFR [2]; B6 male mice, HFD+inhibitor A vs HFD alone, 6 months, n=8 per group, FIG. 13): significantly decreased
percent body fat as assessed by DEXA (EGFR [2]; B6 male mice, HFD+inhibitor A vs HFD alone, 6 months, n=8 per group, p<0.001, FIG. 13): significantly decreased
fat mass (EGFR [2]; [4]): decreased
lean body mass (EGFR [2]; [4]): no change
gross heart weight (EGFR [2]; after 6 months, HFD+Inhibitor A vs HFD, FIG. 16): no significant differences
gross liver weight (EGFR [2]; after 6 months, HFD+Inhibitor A vs HFD, p<0.02, FIG. 16): significantly reduced
fat mass in the four major fat depots (intraperitoneal, intrascapular, kidney, perigonadal) (EGFR [2]; dissection after 6 months, HFD+Inhibitor A vs HFD, FIG. 15): decreased fat mass in all four major fat depots
total cholesterol level (EGFR [2]; [5]): significantly lower
triglyceride level (EGFR [2]; [5]): significantly lower
percent increase in BW relative to BW at 2 months on HFD (EGFR [3]; Group 2 (HFD+Inhibitor A) vs Group 1 (HFD), after 1 and 3 months on HFD+Inhibitor A, p<0.02, FIG. 18): significantly lower
percent increase in BF (H), body fat by DEXA relative to time of diet change (EGFR [3]; Group 2 vs Group 1, after 3 months on HFD+Inhibitor A, p<0.02, FIG. 19): significantly lower
fat depot weights (EGFR [3]; between treatment groups at sacrifice (month 5), FIG. 20A): No significant differences
heart weight (EGFR [3]; [6]): No significant differences
liver weight (EGFR [3]; [6]): No significant differences
blood glucose level (EGFR [3]; [7]): no significant differences
total cholesterol level (EGFR [3]; [7]): no significant differences
triglyceride level (EGFR [3]; [7]): no significant differences
